# Measured values: PMC6508677, “Identification of druggable small molecule antagonists of the Plasmodium falciparum hexose transporter PfHT and assessment of ligand access to the glucose permeation pathway via FLAG-mediated protein engineering” (PLoS ONE, 2019)
# Values joined by “and” are separate entries in the source; they are usually repeats but may differ in a detail not shown here. Equal values may be shown once.
# Molecular target: T1, PfHT (Plasmodium falciparum, UniProt Q7KWJ5)
# T1 sequence (Q7KWJ5 1-504): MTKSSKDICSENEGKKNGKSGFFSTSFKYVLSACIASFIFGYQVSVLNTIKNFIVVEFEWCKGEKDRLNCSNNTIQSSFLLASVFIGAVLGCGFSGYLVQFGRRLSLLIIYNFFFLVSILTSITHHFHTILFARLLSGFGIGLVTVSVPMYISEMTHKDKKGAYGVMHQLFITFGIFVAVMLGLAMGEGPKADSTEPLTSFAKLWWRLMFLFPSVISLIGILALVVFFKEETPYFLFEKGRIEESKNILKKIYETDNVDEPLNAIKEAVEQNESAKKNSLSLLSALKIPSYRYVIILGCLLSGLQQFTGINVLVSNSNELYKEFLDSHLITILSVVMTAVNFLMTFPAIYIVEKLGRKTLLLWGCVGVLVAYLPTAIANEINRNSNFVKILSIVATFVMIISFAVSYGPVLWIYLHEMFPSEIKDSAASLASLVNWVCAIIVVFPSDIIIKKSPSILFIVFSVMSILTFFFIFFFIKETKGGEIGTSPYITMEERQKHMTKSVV
# Experiment: 2-DG uptake by HEK293 cells overexpressing PfHT
# Assay type: cell-based
# Design: expressed in transfected cells; host or cells: HEK293 (HEK293-FLIP, native hGLUT1 knocked down by shRNA)
# Text: Generation of HEK293 cells overexpressing PfHT and human GLUTs 1–4 were described elsewhere. Briefly, HEK293 cells were transfected with pcDNA3.1 FLII12Pglu-7006 (Addgene), containing the fluorescence resonance energy transfer (FRET) glucose sensor (HEK293-FLIP) and PfHT, human GLUT1 (hGLUT1), hGLUT2, hGLUT3, hGLUT4, hGLUT5 or hGLUT8 using Optifect (Life Technologies) according to manufacturer’s specifications. To increase retention of GLUT8 at the plasma membrane, the dileucine sorting signal E^7E^8XXXLL was modified to R^7R^8XXXLL as described in [17]. Stable transfectants were selected for G418 and hygromycin resistance to select for FRET sensor and hexose transporter, respectively. HEK293-FLIP cells were also used to generate cells stably transfected with FLAG-tagged PfHT (FTPfHT). FLAG tag ([…]) followed by a triple glycine linker and a tobacco etch virus (TEV) protease site (ENLYFQS) followed by a triple glycine linker was added to the N-terminus of PfHT via PCR [18] using Phusion Hot Start II High-Fidelity DNA Polymerase (Fisher Scientific). Single clones were selected by comparing their abilities to transport glucose as assayed via FRET and radiolabeled hexose uptake. In all cell lines, except for HEK293 cells overexpressing hGLUT1 and hGLUT5, native hGLUT1 was knocked down using shRNA as described elsewhere. Transcript levels of the individual GLUTs expressed in each cell line are as described in [13, 15] and in S1 Fig.
# Glucose uptake by P. falciparum was performed essentially as described. P. falciparum strain 3D7 was cultured in 100 mm tissue culture dishes (Techno Plastic Products) in a 2% suspension of human erythrocytes and RPMI 1640 medium until reaching > 7.5% parasitemia. Cells were pelleted via centrifugation and resuspended in RPMI 1640 medium. To determine the uptake of radiolabeled glucose into the parasite, parasites were isolated from infected erythrocytes by permeablization with saponin (0.05 w/v), followed by centrifugation, aspiration of supernatant and washing of the pellet 3X with saline solution (135 mM NaCl, 2 mM KCl, 25 mM HEPES, 0.2 mM glucose and 1 mM MgCl2; pH 7.1) to remove cellular debris. WU-1 or DMSO vehicle were added to 100 μl parasites (resuspended in saline) 5 min prior to the addition of 100 μl [^14C]2-DOG (0.2- μCi/ml final concentration). 2-DG uptake was stopped after 2 min by layering the entire reaction over 300 μl of an oil mixture (5:4 mix of dibutyl phthalate / dinonyl phthalate) in Eppendorf tubes and centrifuged at 15,850 × g for 2 mins. The ratio of the estimated intracellular concentration of radiolabel relative to the extracellular concentration were calculated as described. Uptake of radiolabeled hexose into HEK293 cells was measured in glucose-free HBSS as described previously. Briefly, cells were plated at 400,000 cells/well overnight at 37°C in 24-well plates pre-treated with PEI. After 30-min incubation at 37°C in glucose-free HBSS in the presence of vehicle or increasing concentrations of compound, 2-DG uptake was measured in glucose-free HBSS for 4 min at 37°C. Cultures were washed in ice-cold 1X PBS and lysed in 0.1% Triton X-100 in 1X PBS. Radiolabeled hexose uptake was determined by liquid scintillation counting (Ultima Gold, Thermo Fisher) and normalized to total protein per well. Uptake data are plotted as percent uptake relative to vehicle-treated cells. Kinetic analyses were performed using the indicated concentrations of substrate and WU-1, with quenching of uptake after 1 min incubation. Incubation times had been previously determined as being in the linear range of time-dependent radiolabeled hexose uptake (2 min for 2-DG uptake into freed parasites; 2 and 4 min for D-Frc and 2-DG uptake HEK cell lines, respectively). Data were fit by least squares nonlinear regression analysis using GraphPad Prism 6.0 software.
smiles,measurement,setting,value
"C=C1[C@@H](C)[C@H]2[C@H](Cc3ccccc3)NC(=O)[C@]23OC(=O)/C=C/[C@H](O)CCC[C@@H](C)C/C=C/[C@H]3[C@@H]1O [CB, cytochalasin B]",IC50,"AVE IC50 (µM), PfHT, 2-DG Uptake, average of Expt 1-3",10.9 µM
same,remaining activity at 0.001 µM,"HEK293, 4 min, read-out: 2-DG Uptake AVE, PfHT, concentration 0.001 µM, Expt 1-3",100%
same,remaining activity at 0.3906 µM,"HEK293, 4 min, read-out: 2-DG Uptake AVE, PfHT, concentration 0.3906 µM",95.3%
same,remaining activity at 0.7812 µM,"HEK293, 4 min, read-out: 2-DG Uptake AVE, PfHT, concentration 0.7812 µM",96.2%
same,remaining activity at 1.56 µM,"HEK293, 4 min, read-out: 2-DG Uptake AVE, PfHT, concentration 1.56 µM",90.6%
same,remaining activity at 3.125 µM,"HEK293, 4 min, read-out: 2-DG Uptake AVE, PfHT, concentration 3.125 µM",71%
same,remaining activity at 6.25 µM,"HEK293, 4 min, read-out: 2-DG Uptake AVE, PfHT, concentration 6.25 µM",64.5%
same,remaining activity at 12.5 µM,"HEK293, 4 min, read-out: 2-DG Uptake AVE, PfHT, concentration 12.5 µM",47.3%
same,remaining activity at 25 µM,"HEK293, 4 min, read-out: 2-DG Uptake AVE, PfHT, concentration 25 µM",30.6%
same,remaining activity at 50 µM,"HEK293, 4 min, read-out: 2-DG Uptake AVE, PfHT, concentration 50 µM",22.1%
same,remaining activity at 100 µM,"HEK293, 4 min, read-out: 2-DG Uptake AVE, PfHT, concentration 100 µM",12.7%
same,remaining activity at 200 µM,"HEK293, 4 min, read-out: 2-DG Uptake AVE, PfHT, concentration 200 µM",7.58%
same,remaining activity at 400 µM,"HEK293, 4 min, read-out: 2-DG Uptake AVE, PfHT, concentration 400 µM",4.31%
same,IC50,"IC50 (µM), PfHT, 2-DG Uptake, single experiments Expt 1-3",10.3 µM and 12.6 µM and 9.78 µM
same,IC50,"IC50 for inhibition of 2-DG uptake, HEK293 cells overexpressing PfHT, mean/reported value",10.9 ± 0.9 µM
